According to ChEMBL document CHEMBL3784922, “D-Amino acid oxidase inhibitors based on the 5-hydroxy-1,2,4-triazin-6(1H)-one scaffold” (Bioorg Med Chem Lett, 2016):

Key:
D-amino-acid oxidase = D-amino-acid oxidase (Homo sapiens, UniProt P14920); experiment: Inhibition of recombinant human DAAO assessed as oxidative deamination of D-serine in presence of molecular oxygen and FAD after 20 mins
[1] = Metabolic stability in mouse liver microsomes assessed as compound remaining after 60 mins by LC-MS/MS analysis in presence of UDPGA; assay type: ADME; details: for Stability: microsomes, 1 h
[2] = Metabolic stability in mouse liver microsomes assessed as compound remaining after 60 mins by LC-MS/MS analysis in presence of NADPH; assay type: ADME; details: for Stability: microsomes, 1 h
Mus musculus [3] = experiment: In-vivo inhibition of DAAO in CD-1 mouse assessed as increase in D-serine AUC (0 to 6 hrs) at 30 mg/kg, po relative to control; assay type: functional
[4] = Plasma protein binding in CD-1 mouse at 30 mg/kg, po by ultrafiltration technique; assay type: ADME, organism-based; details: read-out: PPB (converted)
Mus musculus [5] = experiment: In-vivo inhibition of DAAO in CD-1 mouse assessed as plasma clearance of D-serine at 30 mg/kg, po after 3 hrs; assay type: organism-based
Mus musculus [6] = organism: Mus musculus; details: CD-1
Mus musculus [7] = experiment: In-vivo inhibition of DAAO in CD-1 mouse assessed as plasma clearance of D-serine at 30 mg/kg, po upto 3 hrs; assay type: organism-based
[8] = Tmax in CD-1 mouse plasma by HPLC-MS analysis; assay type: ADME, organism-based
Mus musculus [9] = experiment: AUC (0 to 6 hrs) in CD-1 mouse plasma at 30 mg/kg, po by HPLC-MS analysis; assay type: ADME, organism-based; parameters: time < 6 hr, dose 30 mg/kg, route oral; details: in vivo
[10] = liver microsomes, read-out: Stability

D-amino-acid oxidase, sequence (P14920 whole entry): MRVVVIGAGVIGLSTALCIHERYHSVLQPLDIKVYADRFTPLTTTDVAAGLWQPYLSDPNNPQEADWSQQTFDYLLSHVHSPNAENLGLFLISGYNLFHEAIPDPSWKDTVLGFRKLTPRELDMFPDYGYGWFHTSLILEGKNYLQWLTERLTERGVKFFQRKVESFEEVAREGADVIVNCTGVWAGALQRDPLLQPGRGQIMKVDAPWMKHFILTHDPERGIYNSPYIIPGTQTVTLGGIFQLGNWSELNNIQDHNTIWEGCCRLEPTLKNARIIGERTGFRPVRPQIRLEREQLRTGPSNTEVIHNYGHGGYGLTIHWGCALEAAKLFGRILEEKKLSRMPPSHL

Row | Compound | IC50 (D-amino-acid oxidase) [nM] | other results
1 | O=c1[nH]nc(SCc2noc3ccccc23)nc1O | 200 | 
2 | O=c1[nH]nc(SCc2cccc(-c3ccccc3)c2)nc1O | 700 | 
3 | O=c1[nH]nc(CCCc2ccccc2)nc1O | 4000 | 
4 | CC(C)(C)c1ccc(CSc2n[nH]c(=O)c(O)n2)cc1 | 300 | 
5 | O=c1[nH]nc(SCc2ccccc2)nc1O | 100 | 
6 | O=c1[nH]nc(SCc2ccc(-c3ccccc3)cc2)nc1O | 90 | 
7 | O=c1[nH]c(=O)n(Cc2cccc3ccccc23)nc1O |  | remaining at 1 h [1, 10]: > 99%; remaining at 1 h [2, 10]: > 99%
8 | O=c1[nH]nc(SCCc2ccccc2)nc1O | 40000 | 
9 | O=c1[nH]nc(SCC2CCCCC2)nc1O | 600 | 
10 | O=c1[nH]nc(SCc2ccc3cc(F)ccc3c2)nc1O |  | Stability [1]: 95%; Stability [2]: 91%

Continued, in another order:

Row | IC50 (D-amino-acid oxidase) [nM] | Compound | other results
11 | 70 | O=c1[nH]nc(Cc2ccccc2)nc1O | 
12 | 50 | O=c1[nH]nc(SCc2ccc(Cl)c(Cl)c2)nc1O | 
13 | 60 | O=c1[nH]nc(CCc2ccccc2)nc1O | fold change (FC) (Mus musculus [3]): 1.7; fraction unbound [4]: 0.26; inhibition (INH) (Mus musculus [5]): Not Active; AUC (Mus musculus [6]): 74200 ng·h/mL; Stability [1]: 98%; inhibition (INH) (Mus musculus [7]): Active; Tmax [8]: 30 min; AUC (Mus musculus [9]): 8070 ng·h/mL; Stability [2]: 79%
14 | 30 | O=c1[nH]nc(SCc2ccc(Cl)cc2)nc1O | 
15 | 50 | O=c1[nH]nc(SCc2ccc(I)cc2)nc1O | 
